Data as given in ChEMBL document CHEMBL1137232 (J Med Chem, 2004).

Assays:
[1] = molecular target: Sodium-dependent dopamine transporter (Rattus norvegicus, UniProt P23977); experiment: Inhibition of high affinity uptake by the dopamine transporter from rat synaptosomal nerve endings by using [3H]DA as radioligand
[2] = molecular target: Sodium-dependent serotonin transporter (Rattus norvegicus, UniProt P31652); experiment: Inhibition of high affinity uptake by the serotonin transporter (5-HT) from rat synaptosomal nerve endings by using [3H]5-HT as radioligand
[3] = molecular target: Norepinephrine transporter (Rattus norvegicus, UniProt Q9WTR4); experiment: Inhibition of high affinity uptake by the norepinephrine transporter from rat synaptosomal nerve endings by using [3H]NE as radioligand
Norepinephrine transporter, sequence (Q9WTR4 whole entry): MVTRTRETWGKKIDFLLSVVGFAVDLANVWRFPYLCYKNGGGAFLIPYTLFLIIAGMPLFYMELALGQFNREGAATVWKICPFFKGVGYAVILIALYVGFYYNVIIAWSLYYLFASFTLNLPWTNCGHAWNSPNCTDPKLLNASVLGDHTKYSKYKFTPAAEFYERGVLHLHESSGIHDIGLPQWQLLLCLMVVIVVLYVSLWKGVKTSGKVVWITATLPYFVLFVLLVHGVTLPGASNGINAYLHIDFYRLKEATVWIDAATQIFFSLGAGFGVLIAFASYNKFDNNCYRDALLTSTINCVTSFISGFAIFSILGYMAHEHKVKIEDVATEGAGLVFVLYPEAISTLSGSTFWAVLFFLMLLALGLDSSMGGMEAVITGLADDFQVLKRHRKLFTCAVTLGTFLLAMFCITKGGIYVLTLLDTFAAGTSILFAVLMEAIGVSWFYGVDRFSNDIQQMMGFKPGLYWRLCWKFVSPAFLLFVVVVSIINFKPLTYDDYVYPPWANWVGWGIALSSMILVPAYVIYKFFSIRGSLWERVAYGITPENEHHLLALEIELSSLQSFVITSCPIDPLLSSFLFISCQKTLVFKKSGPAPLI

Sodium-dependent dopamine transporter, sequence (P23977 whole entry): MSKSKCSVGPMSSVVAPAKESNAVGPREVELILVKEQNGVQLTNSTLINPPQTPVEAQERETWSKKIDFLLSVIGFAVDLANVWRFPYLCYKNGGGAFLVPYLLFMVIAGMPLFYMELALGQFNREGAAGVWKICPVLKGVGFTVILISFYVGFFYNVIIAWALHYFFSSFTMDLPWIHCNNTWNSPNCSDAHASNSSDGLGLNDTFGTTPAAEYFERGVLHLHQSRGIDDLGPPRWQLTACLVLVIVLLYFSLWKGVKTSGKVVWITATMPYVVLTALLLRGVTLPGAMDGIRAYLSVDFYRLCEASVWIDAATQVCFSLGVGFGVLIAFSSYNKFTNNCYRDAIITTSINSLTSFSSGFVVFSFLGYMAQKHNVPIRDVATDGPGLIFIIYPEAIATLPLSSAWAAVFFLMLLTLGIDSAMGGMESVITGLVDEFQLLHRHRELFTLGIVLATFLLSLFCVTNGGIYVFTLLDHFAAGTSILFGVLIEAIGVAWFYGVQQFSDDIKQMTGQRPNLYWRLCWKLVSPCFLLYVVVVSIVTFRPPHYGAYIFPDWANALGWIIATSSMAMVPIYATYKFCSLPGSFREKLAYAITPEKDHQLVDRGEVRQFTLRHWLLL
Sodium-dependent serotonin transporter, sequence (P31652 whole entry): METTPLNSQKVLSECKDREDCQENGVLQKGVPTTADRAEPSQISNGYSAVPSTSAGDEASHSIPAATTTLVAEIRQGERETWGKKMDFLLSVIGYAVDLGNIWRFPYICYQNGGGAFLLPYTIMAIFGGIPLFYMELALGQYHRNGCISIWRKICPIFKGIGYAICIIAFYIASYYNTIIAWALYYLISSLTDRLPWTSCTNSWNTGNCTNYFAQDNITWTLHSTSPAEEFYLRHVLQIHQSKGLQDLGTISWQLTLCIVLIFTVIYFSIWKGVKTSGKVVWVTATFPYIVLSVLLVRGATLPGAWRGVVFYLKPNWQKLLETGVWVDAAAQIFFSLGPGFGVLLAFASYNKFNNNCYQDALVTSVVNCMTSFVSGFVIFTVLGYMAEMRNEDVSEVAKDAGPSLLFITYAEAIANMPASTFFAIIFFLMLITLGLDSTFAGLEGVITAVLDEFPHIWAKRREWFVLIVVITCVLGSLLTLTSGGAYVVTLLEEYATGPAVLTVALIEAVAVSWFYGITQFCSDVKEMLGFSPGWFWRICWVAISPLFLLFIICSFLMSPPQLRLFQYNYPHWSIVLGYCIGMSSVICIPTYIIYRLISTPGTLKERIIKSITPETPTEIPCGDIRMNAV

Compound: COC(=O)CSCC1CNCCC1c1ccc(Cl)cc1 (stereo not given)
- Ki [1]: 51 nM
- Ki [2]: 13 nM
- Ki [3]: 0.56 nM

Compound: CN1CCC(c2ccc(Cl)cc2)C(C[S+]([O-])CC(=O)N(C)C)C1 (stereo not given)
- Ki [1]: 2880 nM
- Ki [2]: 924 nM
- Ki [3]: 1250 nM

Compound: COC(=O)C[S+]([O-])CC1CN(C)CCC1c1ccc(Cl)cc1 (stereo not given)
- Ki [1]: 231 nM
- Ki [2]: 809 nM
- Ki [3]: 53 nM

Compound: COCC[S+]([O-])CC1CN(C)CCC1c1ccc(Cl)cc1 (stereo not given)
- Ki [1]: 15 nM
- Ki [2]: 469 nM
- Ki [3]: 25 nM

Compound: CC(C)NC(=O)CSCC1CN(C)CCC1c1ccc(Cl)cc1 (stereo not given)
- Ki [1]: 1 nM
- Ki [2]: 1.1 nM
- Ki [3]: 0.8 nM

Compound: CN1CCC(c2ccc(Cl)cc2)C(C[S+]([O-])CCOC(=O)c2ccccc2)C1 (stereo not given)
- Ki [1]: 32 nM
- Ki [2]: 199 nM
- Ki [3]: 18 nM

Compound: CN1CCC(c2ccc(Cl)cc2)C(C[S+]([O-])CC(=O)N2CCCCC2)C1 (stereo not given)
- Ki [1]: 379 nM
- Ki [2]: 825 nM
- Ki [3]: 460 nM

Compound: CN1CCC(c2ccc(Cl)cc2)C(C[S+]([O-])CC(=O)NO)C1 (stereo not given)
- Ki [1]: 55 nM
- Ki [2]: 1800 nM
- Ki [3]: 12 nM

Compound: NC(=O)C[S+]([O-])CC1CNCCC1c1ccc(Cl)cc1 (stereo not given)
- Ki [1]: 108 nM
- Ki [2]: 775 nM
- Ki [3]: 31 nM

Compound: CN1CCC(c2ccc(Cl)cc2)C(CSCC(=O)N2CCCCC2)C1 (stereo not given)
- Ki [1]: 83 nM
- Ki [2]: 4.5 nM
- Ki [3]: 0.68 nM

Compound: CNC(=O)C[S+]([O-])CC1CN(C)CCC1c1ccc(Cl)cc1 (stereo not given)
- Ki [1]: 164 nM
- Ki [2]: 2030 nM
- Ki [3]: 86 nM

Compound: COCCSCC1CN(C)CCC1c1ccc(Cl)cc1 (stereo not given)
- Ki [1]: 50 nM
- Ki [2]: 191 nM
- Ki [3]: 6 nM

Compound: CC(C)NC(=O)C[S+]([O-])CC1CN(C)CCC1c1ccc(Cl)cc1 (stereo not given)
- Ki [1]: 248 nM
- Ki [2]: 473 nM
- Ki [3]: 20 nM

Compound: CNC(=O)CSCC1CN(C)CCC1c1ccc(Cl)cc1 (stereo not given)
- Ki [1]: 13 nM
- Ki [2]: 110 nM
- Ki [3]: 25 nM

Compound: CN1CCC(c2ccc(Cl)cc2)C(CSCC(=O)NO)C1 (stereo not given)
- Ki [1]: 85 nM
- Ki [2]: 227 nM
- Ki [3]: 15 nM

Compound: CC(=O)OCC[S+]([O-])CC1CN(C)CCC1c1ccc(Cl)cc1 (stereo not given)
- Ki [1]: 9 nM
- Ki [2]: 87 nM
- Ki [3]: 29 nM

Compound: CN1CCC(c2ccc(Cl)cc2)C(CSCC(=O)N(C)C)C1 (stereo not given)
- Ki [1]: 116 nM
- Ki [2]: 88 nM
- Ki [3]: 27 nM

Compound: CN1CCC(c2ccc(Cl)cc2)C(CSCC(N)=O)C1 (stereo not given)
- Ki [1]: 159 nM
- Ki [2]: 557 nM
- Ki [3]: 39 nM

Compound: NC(=O)CSCC1CNCCC1c1ccc(Cl)cc1 (stereo not given)
- Ki [1]: 114 nM
- Ki [2]: 170 nM
- Ki [3]: 10 nM

Compound: CN1CCC(c2ccc(Cl)cc2)C(CI)C1 (stereo not given)
- Ki [1]: 376 nM
- Ki [2]: 238 nM
- Ki [3]: 424 nM

Compound: CC(=O)OCCSCC1CN(C)CCC1c1ccc(Cl)cc1 (stereo not given)
- Ki [1]: 35 nM
- Ki [2]: 57 nM
- Ki [3]: 3.6 nM

Compound: CN1CCC(c2ccc(Cl)cc2)C(C[S+]([O-])CCO)C1 (stereo not given)
- Ki [1]: 12 nM
- Ki [2]: 2180 nM
- Ki [3]: 42 nM

Compound: CN1CCC(c2ccc(Cl)cc2)C(C[S+]([O-])CC(N)=O)C1 (stereo not given)
- Ki [1]: 209 nM
- Ki [2]: 5790 nM

Compound: Cc1noc(CSCC2CN(C)CCC2c2ccc(Cl)cc2)n1 (stereo not given)
- Ki [1]: 126 nM
- Ki [2]: 221 nM
- Ki [3]: 32 nM

Compound: Cc1noc(C[S+]([O-])CC2CN(C)CCC2c2ccc(Cl)cc2)n1 (stereo not given)
- Ki [1]: 1650 nM
- Ki [2]: 1080 nM
- Ki [3]: 218 nM

Compound: COC(=O)CSCC1CN(C)CCC1c1ccc(Cl)cc1 (stereo not given)
- Ki [1]: 80 nM
- Ki [2]: 208 nM
- Ki [3]: 25 nM

Compound: CN1CCC(c2ccc(Cl)cc2)C(CSCCO)C1 (stereo not given)
- Ki [1]: 16 nM
- Ki [2]: 158 nM
- Ki [3]: 0.94 nM

Compound: CN1CCC(c2ccc(Cl)cc2)C(CSCCOC(=O)c2ccccc2)C1 (stereo not given)
- Ki [1]: 68 nM
- Ki [2]: 6.7 nM
- Ki [3]: 4.5 nM

Compound: COC(=O)C1CN(C)CCC1c1ccc(Cl)cc1 (stereo not given)
- Ki [2]: 8490 nM
- Ki [3]: 252 nM
